Measured values published in ChEMBL document CHEMBL1649565, “Besifloxacin, a novel fluoroquinolone, has broad-spectrum in vitro activity against aerobic and anaerobic bacteria” (Antimicrob Agents Chemother, 2009).
≈ marks a conversion by molar mass, not a printed value.

What was measured:
Type in all cases: functional
Pseudomonas aeruginosa [1] = assay: Antibacterial activity against non-ciprofloxacin-susceptible Pseudomonas aeruginosa by CLSI M7-A7 method
Acinetobacter lwoffii [2] = assay: Antibacterial activity against Acinetobacter lwoffii assessed as percent susceptible isolates by CLSI M7-A7 method
Acinetobacter lwoffii [3] = assay: Antibacterial activity against Acinetobacter lwoffii by CLSI M7-A7 method
Serratia marcescens [4] = assay: Antibacterial activity against levofloxacin susceptible Serratia marcescens assessed as percent susceptible isolates by CLSI M7-A7 method
Klebsiella oxytoca [5] = assay: Antibacterial activity against Klebsiella oxytoca assessed as percent susceptible isolates by CLSI M7-A7 method
[6] = system: Stenotrophomonas maltophilia; assay: Antibacterial activity against levofloxacin-susceptible Stenotrophomonas maltophilia by CLSI M7-A7 method
Proteus vulgaris [7] = assay: Antibacterial activity against Proteus vulgaris assessed as percent susceptible isolates by CLSI M7-A7 method
Proteus mirabilis [8] = assay: Antibacterial activity against Proteus mirabilis assessed as percent susceptible isolates by CLSI M7-A7 method
Morganella morganii [9] = assay: Antibacterial activity against Morganella morganii assessed as percent susceptible isolates by CLSI M7-A7 method
Klebsiella aerogenes [10] = assay: Antibacterial activity against Enterobacter aerogenes assessed as percent susceptible isolates by CLSI M7-A7 method
[11] = system: Acinetobacter calcoaceticus; assay: Antibacterial activity against Acinetobacter calcoaceticus by CLSI M7-A7 method
Proteus mirabilis [12] = assay: Antibacterial activity against Proteus mirabilis by CLSI M7-A7 method
Citrobacter freundii [13] = assay: Antibacterial activity against Citrobacter freundii assessed as percent susceptible isolates by CLSI M7-A7 method
Klebsiella pneumoniae [14] = assay: Antibacterial activity against Klebsiella pneumoniae by CLSI M7-A7 method
Pseudomonas aeruginosa [15] = assay: Antibacterial activity against ciprofloxacin-susceptible Pseudomonas aeruginosa assessed as percent susceptible isolates by CLSI M7-A7 method
Citrobacter koseri [16] = assay: Antibacterial activity against Citrobacter koseri by CLSI M7-A7 method
Proteus vulgaris [17] = assay: Antibacterial activity against Proteus vulgaris by CLSI M7-A7 method
Klebsiella aerogenes [18] = assay: Antibacterial activity against Enterobacter aerogenes by CLSI M7-A7 method
Enterobacter cloacae [19] = assay: Antibacterial activity against Enterobacter cloacae assessed as percent susceptible isolates by CLSI M7-A7 method
Citrobacter freundii [20] = assay: Antibacterial activity against Citrobacter freundii by CLSI M7-A7 method
[21] = system: Acinetobacter calcoaceticus; assay: Antibacterial activity against Acinetobacter calcoaceticus assessed as percent susceptible isolates by CLSI M7-A7 method
Acinetobacter baumannii [22] = assay: Antibacterial activity against Acinetobacter baumannii assessed as percent susceptible isolates by CLSI M7-A7 method
[23] = system: Stenotrophomonas maltophilia; assay: Antibacterial activity against non-levofloxacin susceptible Stenotrophomonas maltophilia by CLSI M7-A7 method
Klebsiella pneumoniae [24] = assay: Antibacterial activity against Klebsiella pneumoniae assessed as percent susceptible isolates by CLSI M7-A7 method
Pseudomonas aeruginosa [25] = assay: Antibacterial activity against ciprofloxacin-susceptible Pseudomonas aeruginosa by CLSI M7-A7 method
Morganella morganii [26] = assay: Antibacterial activity against Morganella morganii by CLSI M7-A7 method
Citrobacter koseri [27] = assay: Antibacterial activity against Citrobacter koseri assessed as percent susceptible isolates by CLSI M7-A7 method
Pseudomonas aeruginosa [28] = assay: Antibacterial activity against non-ciprofloxacin-susceptible Pseudomonas aeruginosa assessed as percent susceptible isolates by CLSI M7-A7 method
Enterobacter cloacae [29] = assay: Antibacterial activity against Enterobacter cloacae by CLSI M7-A7 method
[30] = system: Stenotrophomonas maltophilia; assay: Antibacterial activity against non-levofloxacin susceptible Stenotrophomonas maltophilia assessed as percent susceptible isolates by CLSI M7-A7 method
Serratia marcescens [31] = assay: Antibacterial activity against Serratia marcescens by CLSI M7-A7 method
Klebsiella oxytoca [32] = assay: Antibacterial activity against Klebsiella oxytoca by CLSI M7-A7 method
Acinetobacter baumannii [33] = assay: Antibacterial activity against Acinetobacter baumannii by CLSI M7-A7 method
[34] = system: Stenotrophomonas maltophilia; assay: Antibacterial activity against levofloxacin-susceptible Stenotrophomonas maltophilia assessed as assessed as percent susceptible isolates by CLSI M7-A7 method

For `CC(C)(O/N=C(\C(=O)N[C@@H]1C(=O)N2C(C(=O)[O-])=C(C[n+]3ccccc3)CS[C@H]12)c1csc(N)n1)C(=O)O` [CEFTAZIDIME], the MIC50 (Pseudomonas aeruginosa [1]) was 4 µg/mL (≈ 7.32 µM), the MIC90 (Pseudomonas aeruginosa [1]) was greater than 16 µg/mL and the Activity (Acinetobacter lwoffii [2]) was 76%. For the same compound, the MIC50 (Acinetobacter lwoffii [3]) was 2 µg/mL (≈ 3.66 µM), the MIC90 (Acinetobacter lwoffii [3]) was greater than 16 µg/mL and the Activity (Serratia marcescens [4]) was 93%. It also gave an Activity (Klebsiella oxytoca [5]) of 100%, an MIC [6] of 0.5 µg/mL (≈ 0.915 µM) and an Activity (Proteus vulgaris [7]) of 100%. It also gave an Activity (Proteus mirabilis [8]) of 98%, an Activity (Morganella morganii [9]) of 82.4% and an Activity (Klebsiella aerogenes [10]) of 62%. For the same compound, the MIC50 [11] was 4 µg/mL (≈ 7.32 µM), the MIC90 [11] was greater than 16 µg/mL and the MIC (Proteus mirabilis [12]) was no more than 0.03 µg/mL. For the same compound, the MIC50 (Proteus mirabilis [12]) was no more than 0.03 µg/mL, the MIC90 (Proteus mirabilis [12]) was 0.06 µg/mL (≈ 0.11 µM) and the Activity (Citrobacter freundii [13]) was 78%. For the same compound, the MIC50 (Klebsiella pneumoniae [14]) was 0.12 µg/mL (≈ 0.22 µM), the MIC90 (Klebsiella pneumoniae [14]) was 1 µg/mL (≈ 1.83 µM) and the Activity (Pseudomonas aeruginosa [15]) was 93.3%. For the same compound, the MIC50 (Citrobacter koseri [16]) was 0.12 µg/mL (≈ 0.22 µM), the MIC90 (Citrobacter koseri [16]) was 0.5 µg/mL (≈ 0.915 µM) and the MIC50 (Proteus vulgaris [17]) was 0.06 µg/mL (≈ 0.11 µM). For the same compound, the MIC90 (Proteus vulgaris [17]) was 0.12 µg/mL (≈ 0.22 µM), the MIC50 (Klebsiella aerogenes [18]) was 2 µg/mL (≈ 3.66 µM) and the MIC90 (Klebsiella aerogenes [18]) was greater than 16 µg/mL. The Activity (Enterobacter cloacae [19]) was 70%, the MIC50 (Citrobacter freundii [20]) was 0.25 µg/mL (≈ 0.457 µM) and the MIC90 (Citrobacter freundii [20]) was greater than 16 µg/mL. The Activity [21] was 63%, the Activity (Acinetobacter baumannii [22]) was 39.6% and the MIC [23] was 0.5 µg/mL (≈ 0.915 µM). The Activity (Klebsiella pneumoniae [24]) was 92%, the MIC50 (Pseudomonas aeruginosa [25]) was 2 µg/mL (≈ 3.66 µM) and the MIC90 (Pseudomonas aeruginosa [25]) was 8 µg/mL (≈ 14.6 µM). For the same compound, the MIC50 (Morganella morganii [26]) was 0.12 µg/mL (≈ 0.22 µM), the MIC90 (Morganella morganii [26]) was 16 µg/mL (≈ 29.3 µM) and the Activity (Citrobacter koseri [27]) was 100%. It also gave an Activity (Pseudomonas aeruginosa [28]) of 57.3%, an MIC50 (Enterobacter cloacae [29]) of 0.5 µg/mL (≈ 0.915 µM) and an MIC90 (Enterobacter cloacae [29]) greater than 16 µg/mL. The Activity [30] was 43.8%, the MIC50 (Serratia marcescens [31]) was 0.06 µg/mL (≈ 0.11 µM) and the MIC90 (Serratia marcescens [31]) was 0.5 µg/mL (≈ 0.915 µM). For the same compound, the MIC50 (Klebsiella oxytoca [32]) was 0.12 µg/mL (≈ 0.22 µM), the MIC90 (Klebsiella oxytoca [32]) was 0.5 µg/mL (≈ 0.915 µM) and the MIC50 (Acinetobacter baumannii [33]) was greater than 16 µg/mL. The MIC90 (Acinetobacter baumannii [33]) was greater than 16 µg/mL and the Activity [34] was 32.7%.
`C[C@@H](O)[C@H]1C(=O)N2C(C(=O)O)=C(SCCNC=N)C[C@H]12` [IMIPENEM ANHYDROUS] gave an MIC50 (Pseudomonas aeruginosa [1]) of 1 µg/mL (≈ 3.34 µM), an MIC90 (Pseudomonas aeruginosa [1]) greater than 64 µg/mL and an Activity (Acinetobacter lwoffii [2]) of 86%. For the same compound, the MIC50 (Acinetobacter lwoffii [3]) was 0.25 µg/mL (≈ 0.835 µM), the MIC90 (Acinetobacter lwoffii [3]) was 8 µg/mL (≈ 26.7 µM) and the Activity (Serratia marcescens [4]) was 91%. It also gave an MIC [6] of 0.25 µg/mL (≈ 0.835 µM), an Activity (Proteus vulgaris [7]) of 98% and an Activity (Proteus mirabilis [8]) of 92%. It also gave an Activity (Klebsiella aerogenes [10]) of 88%, an MIC50 [11] of 1 µg/mL (≈ 3.34 µM) and an MIC90 [11] greater than 64 µg/mL. The MIC50 (Proteus mirabilis [12]) was 1 µg/mL (≈ 3.34 µM), the MIC90 (Proteus mirabilis [12]) was 2 µg/mL (≈ 6.68 µM) and the Activity (Citrobacter freundii [13]) was 87%. For the same compound, the MIC50 (Klebsiella pneumoniae [14]) was 0.25 µg/mL (≈ 0.835 µM), the MIC90 (Klebsiella pneumoniae [14]) was 0.5 µg/mL (≈ 1.67 µM) and the Activity (Pseudomonas aeruginosa [15]) was 97.1%. For the same compound, the MIC50 (Proteus vulgaris [17]) was 1 µg/mL (≈ 3.34 µM), the MIC90 (Proteus vulgaris [17]) was 2 µg/mL (≈ 6.68 µM) and the MIC50 (Klebsiella aerogenes [18]) was 0.5 µg/mL (≈ 1.67 µM). The MIC90 (Klebsiella aerogenes [18]) was 1 µg/mL (≈ 3.34 µM), the Activity (Enterobacter cloacae [19]) was 88% and the MIC50 (Citrobacter freundii [20]) was 0.5 µg/mL (≈ 1.67 µM). It also gave an MIC90 (Citrobacter freundii [20]) of 8 µg/mL (≈ 26.7 µM), an Activity [21] of 77.8% and an Activity (Acinetobacter baumannii [22]) of 54.7%. It also gave an MIC [23] of 1 µg/mL (≈ 3.34 µM), an Activity (Klebsiella pneumoniae [24]) of 93% and an MIC50 (Pseudomonas aeruginosa [25]) of 0.5 µg/mL (≈ 1.67 µM). The MIC90 (Pseudomonas aeruginosa [25]) was 1 µg/mL (≈ 3.34 µM), the Activity (Pseudomonas aeruginosa [28]) was 64.6% and the MIC50 (Enterobacter cloacae [29]) was 0.5 µg/mL (≈ 1.67 µM). The MIC90 (Enterobacter cloacae [29]) was 8 µg/mL (≈ 26.7 µM), the Activity [30] was 22.9% and the MIC50 (Serratia marcescens [31]) was 2 µg/mL (≈ 6.68 µM). For the same compound, the MIC90 (Serratia marcescens [31]) was 4 µg/mL (≈ 13.4 µM), the MIC50 (Acinetobacter baumannii [33]) was 2 µg/mL (≈ 6.68 µM) and the MIC90 (Acinetobacter baumannii [33]) was greater than 8 µg/mL. The Activity [34] was 38.5%.
